These results are taken from US10765680B2, “Combination of a MCL-1 inhibitor and a taxane compound, uses and pharmaceutical compositions thereof” (priority 2017, dated 2020).

Structures are written as SMILES. Bounds are passed on as bounds.

Test [1] relates to BT-20 breast cancer cell line. In words: 72 hours CellTiter-Glo proliferation assay, BT-20. The class given is cell-based. As to conditions: single agent, read-out: Abs IC50. As to the method:
(§1) Compounds were dissolved in 100% DMSO (Sigma, Catalog # D2438-50 ML) at a stock concentration of 10 mM and stored at −20° C. until use. Compounds were arrayed in 2 ml deep 96-well plates (Greiner bio-one, catalog number 780271) serially diluted 3-fold. Compound 1 was used over a concentration range of 0.0-10.0 μM. Paclitaxel was used over a concentration range of 0.0-1.0 μM in breast cancer cells and 0.0-2.0 μM range in lung cancer cells.
(§2) All cell lines were purchased from the American Type Culture Collection and cultured according to vendor recommendations. […] All cell lines were determined to be free of mycoplasma contamination by a PCR detection assay performed at Idexx Radil (Columbia, Mo., USA) and authenticated by SNP analysis. […] Cells were expanded to T-75 flasks and assessed for viability using a Beckman-Coulter ViCell counter prior to plating. […]
(§3) Cell proliferation was measured in 72 hours CellTiter-Glo™ (CTG) assays and all results shown are the result of at least triplicate measurements. […] After 72 hours of compound treatment the effects of compounds on cell proliferation was determined using the CellTiter-Glo™ Luminescent Cell Viability Assay (Promega, Catalog # G7573). This is a homogeneous method to determine the number of viable cells in culture based on quantitation of the ATP present, which signals the presence of metabolically active cells. […]
On the technique in general: Cellular ATP, detected with luciferase, serves as a proxy for viable cell number.

The subject of test [2] is BT-474 breast cancer cell line. In words: 72 hours CellTiter-Glo proliferation assay, BT-474. The class given is cell-based. The following applies: single agent, read-out: Abs IC50. As to the method:
as §1, §2, §3

The test system of test [3] is BT-549 breast cancer cell line. Put plainly: 72 hours CellTiter-Glo proliferation assay, BT-549. The following applies: single agent, read-out: Abs IC50. The class given is cell-based. As to the method: as §1, §2, §3
Test [4] concerns Cal-148 breast cancer cell line. In words: 72 hours CellTiter-Glo proliferation assay, Cal-148. The class given is cell-based. The following applies: single agent, read-out: Abs IC50. As to the method: as §1, §2, §3
In test [5] the test system is HCC1143 breast cancer cell line. Put plainly: 72 hours CellTiter-Glo proliferation assay, HCC1143. Type of test: cell-based. As to conditions: single agent, read-out: Abs IC50. As to the method: as §1, §2, §3
Test [6] has as its system HCC70 breast cancer cell line. In words: 72 hours CellTiter-Glo proliferation assay, HCC70. The class given is cell-based. As to conditions: single agent, read-out: Abs IC50. As to the method: as §1, §2, §3
The subject of test [7] is Hs 578T breast cancer cell line. Put plainly: 72 hours CellTiter-Glo proliferation assay, Hs 578T. The class given is cell-based. The following applies: single agent, read-out: Abs IC50. As to the method: as §1, §2, §3
The subject of test [8] is MDA-MB-157 breast cancer cell line. Put plainly: 72 hours CellTiter-Glo proliferation assay, MDA-MB-157. Type of test: cell-based. The following applies: single agent, read-out: Abs IC50. As to the method: as §1, §2, §3
The test system of test [9] is MDA-MB-231 breast cancer cell line. Put plainly: 72 hours CellTiter-Glo proliferation assay, MDA-MB-231. Type of test: cell-based. The following applies: single agent, read-out: Abs IC50. As to the method: as §1, §2, §3
The subject of test [10] is NCI-H23 lung cancer cell line. In words: 72 hours CellTiter-Glo proliferation assay, NCI-H23. Type of test: cell-based. The following applies: single agent, read-out: Abs IC50. As to the method: as §1, §2, §3
The subject of test [11] is MDA-MB-231 xenografts. In words: MDA-MB-231 breast xenograft model, antitumor efficacy. The following applies: Compound 1 50 mg/kg QW×7 iv infusion, liposomal formulation. Type of test: in vivo, female nude rats.
The subject of test [12] is TNBC 110T PDX model. Put plainly: TNBC 110T PDX model, tumor growth and survival (Compound 1, docetaxel). Type of test: in vivo, NOD-SCID-IL2Rγc−/− female mice. As to conditions: Compound 1 15 mg/kg i.v. twice weekly for six weeks. As to the method:
A cohort of 40 female NSG mice was seeded with thawed single cell suspensions of early passage human breast tumors (TNBC PDX110). Briefly, 100,000 cells were resuspended in 10 μl of transplantation buffer (50% fetal calf serum, 10% of a 0.04% trypan blue solution and 40% PBS) and growth-factor-reduced Matrigel [BD] at a ratio of 3:1, and injected into the cleared mammary fat pads of 3- or 4-week-old NOD-SCID-IL2Rγc^−/− female mice. […] Once tumors reached a volume of 60-110 mm^3, mice were randomized into treatment arms and treatment commenced. Docetaxel or its vehicle was prepared by dissolving stock solution (20 mg/ml) with PBS and injected i.p. every 21 days for two treatment cycles. The duration of therapy is indicated by the bar. […] Compound 1 (15 mg/kg) or its vehicle was injected i.v. twice weekly for six weeks. Mice were sacrificed at the first measurement where tumor volume exceeded 600 mm^3, or if their health deteriorated for reasons other than disease progression or drug toxicity (censored event). n=9-10 mice per treatment group.

Test [13] concerns PDX models resistant to docetaxel. Put plainly: PDX models resistant to docetaxel, efficacy. The class given is in vivo, female Swiss Nude mice. As to conditions: Compound 1 70 mg/kg IV once a week, liposomal formulation. As to the method: PDX models whose resistance to docetaxel has been confirmed in vivo were tested. Each treatment group included 5 female Swiss Nude mice, aged from 6 to 8 weeks old. The treatment started when xenografts reached a mean tumor volume of ˜120-150 mm^3. Groups of mice were then randomly affected to the different treatments. The number of grafted animals depended on the homogeneity of the tumor growth.
Formulated in a liposomal formulation, Compound 1 was administered intravenously at 70 mg/kg once a week. The formulation had to be prepared extemporaneously. Paclitaxel diluted in 0.9% NaCl was given ip at 25 mg/kg. Paclitaxel was given QW 16 hours before the administration of Compound 1. The administration schedule of the different treatments is defined as follows: […]
Tumor sizes were measured twice a week and weights of individual mice were measured once a week. Treatments were done until the median tumor volume of the most responsive group started to regrow. Mice were followed after the stop of the treatment to compare the time to relapse between the groups. […]

Usually IC50 stands for the midpoint of a concentration-inhibition curve. On to `COc1ccccc1-c1nccc(COc2ccccc2C[C@@H](Oc2ncnc3sc(-c4ccc(F)cc4)c(-c4ccc(OCCN5CCN(C)CC5)c(Cl)c4C)c23)C(=O)O)n1` [Compound 1, (2R)-2-{[(5Sa)-5-{3-chloro-2-methyl-4-[2-(4-methylpiperazin-1-yl)ethoxy]phenyl}-6-(4-fluorophenyl)thieno[2,3-d]pyrimidin-4-yl]oxy}-3-(2-{[2-(2-methoxyphenyl)pyrimidin-4-yl]methoxy}phenyl)propanoic acid], for which the IC50 in test [1] is 653 nM; in [2] it was 1260 nM; in [3] it was above 10000 nM; in [4] it was 1330 nM; in test [5], above 10000 nM; in test [6], 704 nM. Also, the half-maximal inhibitory concentration (IC50) is 520 nM in test [7], above 10000 nM in [8], above 10000 nM in [9] and 160 nM in [10]. Also, the efficacy entry in test [11] is recorded as “no efficacy”. Further, the “inhibition of tumor growth, single agent” value in [12] and in test [13] was “insufficient in inhibiting tumor growth” in each case.
